Source: patent publication EP3593822A1, “THERAPEUTIC AND DIAGNOSTIC APPLICATIONS OF A NEW METHOD OF MONITORING OF NEUROGLIAL INTERACTION MEMRI)” (Theranexus, priority 2018, dated 2020)
Structures can show the parent of a compound that is named as a salt.

Biological target: T1, Cx43 (Mus musculus, UniProt P23242)
T1 construct: from tissue; host or cells: brain of living wild-type C57BL/6 male mice (in vivo)
Experiment: Manganese-enhanced MRI (MEMRI) of mouse brain after administration of connexin modulators
Type: in vivo, wild-type C57BL/6 male mice
Conditions: for T1-w signal intensity (% of control): 1 mg/kg i.p. 2.5h before imaging, 24h after MnCl2 50 mg/kg i.p., mean ± SEM; for increase of T1-w signal intensity: n=6, change versus control, 1 mg/kg i.p.
Protocol: The MRI measurements were performed on 42 wild-type C57BL/6 male mice. All mice weighed between 25 and 35 g. Mice were housed 4-5 per cage under standard conditions (12/12 h light-dark cycle, light on at 7 am, 22 ± 1°C ambient temperature, 60% relative humidity). This work was carried out in accordance with the Policies of the French Committee of Ethics. Animal surgery and experimentations conducted in this study were authorized by the French Direction of Veterinary Services and all efforts were made to improve animal welfare and minimize animals suffering.
All animals were injected intraperitoneally with MnCl2 50 mg/kg. Animals received an injection of treatment (or saline) 24h after the MnCl2 administration, and were imaged 2.5h later.
The mice were anesthetized with 0.5-1.0% isoflurane in air throughout the experiments. The respiration rate was monitored and the body temperature was maintained at 36.5 °C using an MR-compatible, feedback-controlled air heating system (model 1025; SA Instruments, NY). A capillary filled with 100 µM MnCl2 was placed on the head, inside the RF coil, and was used as signal intensity reference.
The T1-weighted images were acquired using a 3D rapid acquisition with relaxation enhancement (RARE) sequence: RARE factor 4, repetition time/echo time = 250 ms / 6 ms, 4 averages. For T1 relaxation time measurements, a true fast Imaging with Steady-state free Precession (trueFISP) sequence was used with the following acquisition parameters: repetition time/echo time = 3.66/1.83 ms, flip angle = 10, inversion time = 80 ms, number of inversion times = 60, 2 averages.
The position of the brain image was co-registered to a template using SPM8 software (Welcome Trust Center for Neuroimaging, UK). The template image was co-registered to mouse brain atlas (Paxinos and Franklin's the Mouse Brain in Stereotaxic Coordinates 3rd Edition). T1-weighted signals were normalized using the signal intensity from the reference tube. T1 maps were calculated as described previously elsewhere (74). Eighteen regions of interest (ROIs) were defined using the mouse brain atlas.
The averaged T1-weighted signals and T1 values were calculated using an in house written Matlab program. To compensate for differences in coil sensitivity between left and right channels we calculated the signal intensities in ROIs drawn in the left and right cerebral cortex, including the somatosensory cortex and insular cortex, (ROIcortex_left ROIcortex_right). The averaged T1-weighted signal intensity on the left side (SIleft) was then corrected following the equation: SIleft_corrected = SIleft × SIcortex_right /SIcortex_left [formula]
Statistical analyses were performed using GraphPad Prism version 7.0c. Data were analyzed using Mann-Whitney non-parametric test, paired t test or one sample t test compared to the hypothetical value 1 or 100 as appropriate. In each experiment, a level of p<0.05 was accepted as evidence for a statistically significant effect. * p<0.05; ** p<0.01; *** p<0.001. Response of the MEMRI signal after drugs administration are expressed as means ± SEM of percent of control. The remaining data are expressed as mean ± SEM.
For all, MEMRI signals are expressed as percentage of control. Statistical significances are based on the comparison to the hypothetical value 100%.

[1] = LPB = Lateral parabrachial nucleus
[2] = mPFC = Medial prefrontal cortex

T1 sequence (P23242 2-382 limits assumed): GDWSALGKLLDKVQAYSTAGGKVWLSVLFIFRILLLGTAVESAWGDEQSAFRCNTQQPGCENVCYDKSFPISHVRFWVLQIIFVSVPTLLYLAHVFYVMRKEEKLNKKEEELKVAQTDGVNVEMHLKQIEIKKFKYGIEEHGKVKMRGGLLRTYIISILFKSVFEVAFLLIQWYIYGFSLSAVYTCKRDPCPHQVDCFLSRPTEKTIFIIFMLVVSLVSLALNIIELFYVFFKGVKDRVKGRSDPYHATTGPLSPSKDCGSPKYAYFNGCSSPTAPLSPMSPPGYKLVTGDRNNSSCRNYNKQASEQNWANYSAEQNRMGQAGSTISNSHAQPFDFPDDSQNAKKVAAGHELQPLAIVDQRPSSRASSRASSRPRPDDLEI

SMILES | T1-w signal intensity (% of control) (AC = Auditory cortex) | T1-w signal intensity (% of control) (Cg = Cingulate cortex) | T1-w signal intensity (% of control) (Cpu = Caudate putamen) | T1-w signal intensity (% of control) (DRa = Dorsal raphe pallidus) | T1-w signal intensity (% of control) (Hip = Hippocampus) | T1-w signal intensity (% of control) (Hyp = Hypothalamus) | T1-w signal intensity (% of control) (IC = Insular cortex) | T1-w signal intensity (% of control) (LC = Locus coeruleus) | T1-w signal intensity (% of control) [1] | T1-w signal intensity (% of control) (MC = Motor cortex) | T1-w signal intensity (% of control) (OB = Olfactory bulb) | T1-w signal intensity (% of control) (OC = Orbital cortex) | T1-w signal intensity (% of control) (PrL = Prelimbic cortex) | T1-w signal intensity (% of control) (SC = Somatosensory cortex) | T1-w signal intensity (% of control) (SN = Substantia nigra) | T1-w signal intensity (% of control) (Sep = Septum) | T1-w signal intensity (% of control) (ThN = Thalamic nuclei) | increase of T1-w signal intensity (hypothalamus) | T1-w signal intensity (% of control) [2] | increase of T1-w signal intensity (olfactory bulb) | other results
O=C(NCC1CCCCN1)c1cc(OCC(F)(F)F)ccc1OCC(F)(F)F (centres unmarked) [flecainide, flecainide acetate salt] | 114 ± 4.04 % of control | 123 ± 5.73 % of control | 120 ± 6.01 % of control | 122 ± 6.86 % of control | 118 ± 4.73 % of control | 121 ± 7.05 % of control | 118 ± 5.62 % of control | 119 ± 5.69 % of control | 119 ± 6.07 % of control | 122 ± 5.09 % of control | 123 ± 9.21 % of control | 123 ± 8.23 % of control | 121 ± 7.09 % of control | 120 ± 4.88 % of control | 117 ± 6.97 % of control | 119 ± 6.95 % of control | 121 ± 5.47 % of control | ~+20.9% | 121 ± 6.86 % of control |  | increase of T1-w signal intensity (dorsal raphe pallidus): approximately +21.9%; increase of T1-w signal intensity (lateral parabrachial nucleus): ~+19%; increase of T1-w signal intensity (locus coeruleus): ~+19.2%
Cc1ccc(Cl)c(Nc2ccccc2C(=O)O)c1Cl [meclofenamic acid] | 117 ± 5.68 % of control | 127 ± 4.49 % of control | 130 ± 3.90 % of control | 112 ± 5.31 % of control | 118 ± 4.32 % of control | 118 ± 5.38 % of control | 128 ± 5.17 % of control | 104 ± 6.23 % of control | 106 ± 6.15 % of control | 122 ± 4.61 % of control | 147 ± 4.91 % of control | 138 ± 4.69 % of control | 136 ± 4.41 % of control | 120 ± 4.90 % of control | 118 ± 5.67 % of control | 136 ± 3.68 % of control | 120 ± 4.87 % of control | approximately +18.5% | 136 ± 4.33 % of control | ~+47.4% | T1-w signal intensity (% of control) (LPB = Lateral parabrachial nucleus, listed as MFA): 106 ± 6,15 % of control; increase of T1-w signal intensity (substantia nigra): ~+17.9%
OC(c1cc(C(F)(F)F)nc2c(C(F)(F)F)cccc12)C1CCCCN1 (centres unmarked) [mefloquine, Mefloquine] |  |  |  | 113 ± 6.84 % of control |  | 113 ± 8.39 % of control |  | 111 ± 7.61 % of control | 111 ± 6.96 % of control |  |  |  |  |  |  |  |  |  |  | +26.5% | increase of T1-w signal intensity (substantia nigra): +19,2%
